# Test results taken from US5641480A, “Hair care compositions comprising heteroatom containing alkyl aldonamide compounds” (Lever Brothers Company, Division of Conopco, Inc., priority 1994, dated 1997).
# Like-named read-outs stand apart in the source and are kept apart here.
# Assays:
# [1] = Efficiency in surface tension reduction, pC20 (Example 92); format: physicochemical; conditions: 60 °C, estimated by extrapolation
# From the text: Since surface tension reduction depends on the replacement of water molecules at the interface by surfactant molecules, the efficiency of a surfactant in reducing interfacial tension should reflect the concentration of surfactant at the interface relative to that in bulk liquid phase. A suitable measure of efficiency with which a surfactant performs this function can be described as pC20. This is defined as the negative logarithm of the bulk phase surfactant concentration necessary to reduce the surface tension of water by 20 dyn/cm and is given as:
# pC20 =-log [C(-Δγ=20) ]=-log [C20]
# C(-Δγ=20) =C20 is the bulk phase surfactant concentration necessary to reduce the surface tension of water by 20 dyn/cm.
# In general, pC20 values are usually close to the minimum concentration needed to saturate the interface with surfactant molecules.
# [2] = Effectiveness in reducing surface tension (Example 93); format: physicochemical; conditions: 60 °C
# From the text: As mentioned before, surface tension reduction depends on the replacement of water molecules at the interface by surfactant molecules, therefore the effectiveness of a surfactant in reducing interfacial surface tension should reflect the saturated concentration of surfactant at the interface relative to that in bulk liquid phase. During this process the surface tension of water steadily decreases as bulk phase surfactant concentration increases. This will continue until the concentration reaches the critical micelle concentration (CMC), above which the surface tension remains nearly unchanged and the interface is saturated with surfactant. The surface tension at the CMC is therefore very close to the minimum interfacial tension or maximum surface pressure that the system can achieve. The surface pressure at this point, IIcmc, is a suitable measure of the effectiveness of a surfactant in reducing surface tension and is given as:
# .PI.cmc 20+2.3nRT(Γmax) log [CMC/C20 ]
# n=1 which represents the number of ions whose surface concentration changes with the change in liquid phase suffactant concentration.
# CMC/C20 =is the ratio of the critical micelle concentration to the bulk phase surfactant concentration necessary to reduce the surface tension of water by 20 dyn/cm.
# [3] = Effectiveness of adsorption, surface excess concentration at surface saturation (Example 94); format: physicochemical; conditions: 60 °C, estimated by extrapolation
# From the text: The surface excess concentration at surface saturation (Γmax) is defined as a measure of the effectiveness of surfactant adsorption at the water/air interface and represents the maximum value to which adsorption can be obtained. Effectiveness of adsorption is related to the interfacial area occupied by the surfactant molecule. The smaller the effective cross-sectional area of a surfactant at the interface, the greater its effectiveness of adsorption. The effectiveness of adsorption is an important factor in determining surfactant properties such as detergency, foaming, wetting or emulsification. While not wishing to be bound by theory, it is believed that surfactants that absorb effectively at the interface tend have tightly packed coherent interfacial films and often provide better surfactant benefits than those with loosely packed noncoherent films. The effectiveness of adsorption of C8 /C10 oxypropyl D-gluconamide was determined using the Gibbs equation given as: […]
# ergs/cm^2 (which is equivalent to the slope of a plot of γ
# [4] = Area per molecule at the water/air interface (Example 95); format: physicochemical; conditions: 60 °C
# From the text: The area per molecule of a surfactant at the water/air interface provides information on the degree of packing and the orientation of the adsorbed surfactant molecule. While not wishing to be bound by theory, it is believed that surfactants that have small area per molecule values tend to pack more closely at the interface than those with large area per molecule values. From the surface excess concentration at surface saturation (Γmax), the area per molecule (am) of C8 /C10 oxypropyl D-gluconamide was determined and is given by:
# am =1×10^16 /Nav Γmax
# [5] = Rosen, cited from earlier work
# [6] = Rosen, cited from earlier work; remark: listed apart in the source
# [7] = Rosen, cited from earlier work; remark: listed apart in the source
# [8] = Rosen, cited from earlier work; remark: listed apart in the source
# [9] = Surface tension at the water/air interface (Example 91); format: physicochemical; conditions: 60 °C
# Description: An important characteristic feature that surfactants have is the tendency for them to absorb at the water/air interface in an oriented manner, thereby altering the interfacial free energy of that surface. The surface free energy per unit area or surface tension (γ), is a measure of this work and may be considered as the minimum amount of work required to bring sufficient surfactant molecules to the surface.
# The surface tension (γ) value of C8 /C10 oxypropyl D-gluconamide was determined and is set forth below: […]
# [10] = Clarity of prototype shampoo compositions with sodium lauryl sulfate (Example 87); format: physicochemical; conditions: room temperature, 6 months
# Description: (§1) The prototype shampoo composition is as follows:
# (§2) The above formulations were prepared by admixing the above ingredients in listed order and heating the mixture to about 80° C. with rapid stirring. The mixture was then cooled to about 40° C., placed in a clear jar and stored at room temperature for 6 months.
# [11] = Critical micelle concentration, Wilhelmy plate method (Example 90); format: physicochemical
# Description: The critical micelle concentration (CMC) is defined as the concentration at which a surfactant forms micelles in aqueous solution. Micellization is the preferred interfacial phenomena, since certain surfactant benefits such as detergency (the solubilization of soils), foaming, wetting or emulsification depend on the formation of these aggregates in solution.
# The CMC value of C8 /C10 oxypropyl D-gluconamide was determined by plotting surface tension as a function of log(concentration) and extrapolating linear points to obtain an intersection point. The concentration at this point was taken as the CMC. The technique used was the Wilhelmy plate method and the instrument used was a Lauda Auto-Tensiometer. While wishing not to be bound to theory, it is believed that surfactants with low CMC values form micelles more readily at lower concentrations than those with high CMC values.
# [12] = Ross-Miles foam height assay of aldonamides (Examples 81-84); format: physicochemical; conditions: 0.1% aldonamide, 40° C. (if not soluble, about 5°-10° C. above Krafft point), 0 ppm hardness
# Description: In the Ross-Miles method, 200 mL of a suffactant solution contained in a pipette of specified dimensions with a 2.9 -mm-i.d. orifice is allowed to fall 90 cm onto 50 mL of the same solution contained in a cylindrical vessel maintained at a given temperature by means of a water jacket. The height of the foam produced in the cylindrical vessel is read immediately after all the solution has run out of the pipette and then again after a given amount of time.
# Using this method, the foam production (initial foam height in mm) and foam stability (final foam height after 10 minutes in mm) were measured at 0.1% aldonamtde concentration, 40° C. and 0 ppm (parts per million) hardness.
# [13] = Viscosity of prototype shampoo compositions with sodium lauryl sulfate, Brookfield Digital Viscometer (Example 88); format: physicochemical; conditions: vs no thickener
# Description: as §1, §2
# It is well known that the viscosity of a liquid composition comprising of anionic surfactant can be modified by the addition of inorganic salts, such as sodium chloride. However, in the absence of an organic modifier, high levels of salt may be necessary to achieve the required viscosity which may lead to problems of storage at cold temperature or even salting out certain ingredients. In practice, however, the viscosity of a liquid composition is modified by the simultaneous addition of thickener and small amounts of inorganic salt (viscosity cobuilder). The combined effect is greater than either one alone. The viscosity of the above prototype shampoo composition comprising various amounts of heteroatom containing alkyl aldonamide compound is as follows: […]
# [14] = Viscosity of prototype shampoo compositions of Example 86, Brookfield Digital Viscometer; format: physicochemical; conditions: 4.0% thickener
# From the text: The results are as follows:
# zein = test system: zein
# From the text: The zein solubilization assay was developed to determine the biological effects of surfactants on the skin. The protein is normally in soluble in water, but can be brought into solution by interaction with surfactants. The extent of zein dissolved is related to the irritation potential (M. J. Schwinger, Kolloid-Z. Z. Poly., 233, 848, 1969). The greater the zein solubilization, the greater the irritation potential of that surfactant on the skin.
# Thus, a 1% solution of surfactant (30 mls) was added to 1.5 g of zein and stirred at room temperature for 1 hour. Residual zein was collected and dried to constant weight. Differences between starting and residual weights were used to calculate % zein solubilized.
# [15] = Micellar shape and structure, packing parameter (Example 96); conditions: T=333.15° K.
# From the text: A theory of miceIlar structure, based upon the geometry of various micelle shapes and the space occupied by the surfactant has been disclosed by J. N. Israelachvili, D. J. Mitchell and B. W. Ninham in the J. Chem. Soc. Faraday Trans. 2, 1525, 72, (1976) which is given as the packing parameter (p).
# VT =V(CH3) +(nc -1)V(CH2) and represents the volume occupied by the hydrophobic groups in the miceliar core at a given temperature.
# 1c= 1.50+1.26 nc Å and represents the length of the hydrophobic group in the core.
# am =area per molecule or the cross-sectional area occupied by the hydrophilic group at the interface.
# nc =total number of carbons in the alkyl chain.
# [16] = 3.0% thickener in […] sodium lauryl sulfate shampoo
# [17] = 5.0% thickener in […] sodium lauryl sulfate shampoo
γ (surface tension) [9] [dyn/cm],"Appearance (Time) [10, 16]","Appearance (Time) [10, 17]",Compound,pC20 [1],.PI.cmc (surface pressure) ([2]; estimated by extrapolation) [dyn/cm],Γmax (surface excess concentration at surface saturation) [3],am (area per molecule) ([4]; estimated by extrapolation) [Å^2],pC20 ([5]; 25 °C),pC20 ([5]; 40 °C),.PI.cmc (surface pressure) ([6]; 25 °C) [dyn/cm],CMC/C20 ([6]; 25 °C),.PI.cmc (surface pressure) ([6]; 40 °C) [dyn/cm],CMC/C20 ([6]; 40 °C),Γmax (surface excess concentration at surface saturation) ([7]; 25 °C),Γmax (surface excess concentration at surface saturation) ([7]; 40 °C),am (area per molecule) ([8]; 25 °C) [Å^2],am (area per molecule) ([8]; 40 °C) [Å^2],also measured
–,–,–,CCCCCCCCCCCCOCCOCCOCCOCCOCCOCCOCCO [Dodecylhepta(oxyethylene) Ether],5.41,36.8,2.71 × 10^-10 mole/cm^2,61.0,5.26,5.28,38.3,14.9,38.5,13.9,2.90 × 10^-10 mole/cm^2,2.77 × 10^-10 mole/cm^2,57.3,59.9,–
60.2,–,–,O [Water],–,–,–,–,–,–,–,–,–,–,–,–,–,–,–
–,Precipitate (2 days),Precipitate (1 hour),"CCCCCCCCCCCCNC(=O)[C@H](O)[C@@H](O)[C@H](O)[C@H](O)CO [C12 D-Gluconamide, dodecyl D-gluconamide]",–,–,–,–,–,–,–,–,–,–,–,–,–,–,CMC ([11]; 60 °C): None; water solubility ([11]; 60 °C table entry / discussion): insoluble in water and can not form micelles
29.2,Clear,Clear,C8 /C10 oxypropyl D-gluconamide,–,–,–,–,–,–,–,–,–,–,–,–,–,–,"Foam Height Initial [12]: 212 mm; Foam Height Final ([12]; after 10 minutes): 165 mm; Appearance (Time) ([10]; 4.0% thickener in […] sodium lauryl sulfate shampoo): Clear; Increase (viscosity) ([13]; 1.0% thickener): 13 ×; Increase (viscosity) ([13]; 2.0% thickener): 27 ×; Increase (viscosity) ([13]; 3.0% thickener): 80 ×; Increase (viscosity) ([13]; 4.0% thickener): 148 ×; Increase (viscosity) ([13]; 5.0% thickener): 860 ×; increased the viscosity of that composition ([14]; Example 86 shampoo (2395/22)): 109 times; Viscosity ([14]; Example 86 shampoo, 22° C.): 2395 Centipoise; % Zein Solubilized (zein): 6%; .PI.cmc (surface pressure) [2]: 38.5 dyn/cm; am (area per molecule) [4]: 43.1 Å^2; p (packing parameter) [15]: 0.503"
–,–,–,CCCCCCCCCCCCOCCOCCOCCOCCOCCOCCOCCOCCO [Dodecylocta(oxyethylene) Ether],5.39,36.3,2.40 × 10^-10 mole/cm^2,69.0,5.20,5.22,37.2,17.3,37.3,15.4,2.52 × 10^-10 mole/cm^2,2.46 × 10^-10 mole/cm^2,66.0,67.4,–
